What all share (assay): NCI tumour cell line growth inhibition, 48 h
For experiment [1], the system named is COLO 205.
The subject of experiment [2] is NCI-H23.
For experiment [3], the system named is UO-31.
Experiment [4] concerns OVCAR-3.
Experiment [5] relates to NCI-H460.
The subject of experiment [6] is IGROV-1.
For experiment [7], the system named is K562.
Experiment [8] relates to Malme-3M.
In experiment [9] the test system is EKVX.
In experiment [10] the test system is UACC-257.
Experiment [11] concerns HT-29.
Experiment [12] relates to 786-0.
Experiment [13] has as its system SK-MEL-28.
For experiment [14], the system named is SN12C.
For experiment [15], the system named is NCI-H226.
Experiment [16] relates to A549.

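Grown in 96-well plates, cells were treated for 48 hours with each compound at five concentrations. Insufficient inhibition: endpoint recorded as highest concentration tested. Abbreviation: GI50, concentration required for 50% inhibition of growth.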 Activity calls are given as the source filed them. Cut-off read from the data, not from the text of the source: active = GI50 up to about 1.1 µM and inactive = higher.

For the compound `CCOC(OC(C)=O)[C@@H]1C=C[C@H](C)N(c2ccc([N+](=O)[O-])cc2)O1` (some centres not stated), the GI50 was 11.9 µM (inactive) in experiment [1]; 2.84 µM (inactive) in experiment [2]; 3.45 µM (inactive) in [3]; 5.66 µM (inactive) in [4]; 10.6 µM (inactive) in experiment [5]; 7.98 µM (inactive) in [6]. Besides, the GI50 in [7] was 2.73 µM (inactive); in [8], 7.98 µM (inactive); in [9] it was 16.1 µM (inactive); in [10], 9.82 µM (inactive); in experiment [11] it was 3.17 µM (inactive); in [12], 2.67 µM (inactive). Also, the GI50 in [13] was 3.01 µM (inactive); in [14] it was 3.4 µM (inactive); in experiment [15], 5.57 µM (inactive); in experiment [16], 20.2 µM (inactive).
As for `COc1cc([C@@H]2c3cc4c(cc3[C@@H](NCc3ccccc3F)C3COC(=O)[C@@H]32)OCO4)cc(OC)c1O` (some centres not stated), the GI50 in experiment [1] is 17.7 µM (inactive); in [2], 2.29 µM (inactive); in [3] it was 4.05 µM (inactive); in experiment [4] it was 15.6 µM (inactive); in experiment [5] it was 0.56 µM (active); in experiment [6] it was 1.11 µM (active). The GI50 in [7] was 1.47 µM (inactive); in experiment [8], 5.94 µM (inactive); in experiment [9], 10.7 µM (inactive); in [10], 3.1 µM (inactive); in [11], 4.78 µM (inactive); in [12], 2.81 µM (inactive). In addition, the GI50 was 12.2 µM (inactive) in experiment [13], 2.62 µM (inactive) in [14], 2.06 µM (inactive) in experiment [15] and 0.933 µM (active) in [16].
With `Cc1nc2c(o1)/C(=N\c1ccccc1)c1nc(C)oc1/C2=N/c1ccccc1`, the GI50 in experiment [1] was 33.1 µM (inactive); in [2], 25.9 µM (inactive); in [3] it was 17.2 µM (inactive); in [4], 39.2 µM (inactive); in [5] it was 29.3 µM (inactive); in [6], 4.73 µM (inactive). The GI50 in experiment [7] is 33 µM (inactive); in experiment [8], 19.4 µM (inactive); in experiment [9] it was > 10 µM (inactive); in [10], 29.6 µM (inactive); in experiment [11], 20.4 µM (inactive); in experiment [12], 17.7 µM (inactive). The GI50 in experiment [13] was 23.9 µM (inactive); in experiment [14] it was 17.5 µM (inactive); in [15] it was 21.4 µM (inactive); in experiment [16], 24.8 µM (inactive).
For the compound `Cn1c(=O)c2ccc(-c3ccc(Br)cc3)nc2n(C)c1=O`, the GI50 is > 100 µM (inactive) in experiment [1]; 51.2 µM (inactive) in experiment [2]; > 100 µM (inactive) in experiment [3]; > 100 µM (inactive) in [4]; > 100 µM (inactive) in [5]; > 100 µM (inactive) in experiment [6]. Besides, the GI50 in experiment [7] is > 100 µM (inactive); in [8] it was > 100 µM (inactive); in experiment [9] it was 42.9 µM (inactive); in [10], > 100 µM (inactive); in experiment [11] it was > 100 µM (inactive); in [12] it was > 100 µM (inactive). Also, the GI50 in experiment [13], in [15] and in experiment [16] was > 100 µM (inactive) in each case.
With `N#Cc1cc([N+](=O)[O-])ccc1NC(=O)C(=O)Nc1n[nH]c(N)n1`, the GI50 in experiment [1], in experiment [2], in [3], in experiment [4], in experiment [5] and in [6] was > 100 µM (inactive) throughout. Further, the GI50 in experiment [7], in experiment [8], in [9], in experiment [10], in [11] and in experiment [12] was > 100 µM (inactive) each time. For the same compound, the GI50 in experiment [13] is > 100 µM (inactive); in [14] it was > 100 µM (inactive); in experiment [15] it was 86.3 µM (inactive); in experiment [16], > 100 µM (inactive).
In the case of `CC(=O)NC(CCCNCc1ccccc1)C(=O)NCc1ccccc1` (configuration not stated), the GI50 in experiment [1], in experiment [2], in experiment [3], in [4], in experiment [5] and in experiment [6] was > 100 µM (inactive) in each case. Further, the GI50 in [7], in [8], in experiment [9], in experiment [10], in [11] and in experiment [12] was > 100 µM (inactive) each time. The GI50 in experiment [13], in experiment [14], in [15] and in experiment [16] was > 100 µM (inactive) in each case.
As for `CC(=O)CC(=O)Nc1ccccc1[N+](=O)[O-]`, the GI50 in [1], in experiment [2], in experiment [3], in experiment [4], in [5] and in experiment [6] was > 100 µM (inactive) throughout. For the same compound, the GI50 in experiment [7], in experiment [8], in experiment [9], in [10], in [11] and in experiment [12] was > 100 µM (inactive) throughout. The GI50 in experiment [13], in experiment [14], in experiment [15] and in experiment [16] was > 100 µM (inactive) in each case.
`NCCN1C(=O)C2C3c4ccccc4C(c4ccccc43)C2C1=O` (configuration not stated): the GI50 in experiment [1], in experiment [2], in [3], in experiment [4], in [5] and in experiment [6] was > 100 µM (inactive) in each case. The GI50 in [7], in [8], in experiment [9], in experiment [10], in experiment [11] and in experiment [12] was > 100 µM (inactive) each time. Further, the GI50 in [13], in [14], in experiment [15] and in [16] was > 100 µM (inactive) throughout.
As to `CCOC(=O)C1Cc2[nH]c3ccccc3c2C(C)C1C` (configuration not stated), the GI50 in experiment [1] is 17.3 µM (inactive); in experiment [2], 13.5 µM (inactive); in experiment [3] it was 12.8 µM (inactive); in [4] it was 15.6 µM (inactive); in experiment [5] it was 17.3 µM (inactive); in experiment [6] it was 15.3 µM (inactive). Moreover, the GI50 was 23.5 µM (inactive) in experiment [7]; 16.9 µM (inactive) in [8]; 10.8 µM (inactive) in [9]; 17.6 µM (inactive) in [10]; 14.6 µM (inactive) in experiment [12]; 17.1 µM (inactive) in experiment [13]. Also, the GI50 in experiment [14] is 18.4 µM (inactive); in experiment [15], 11.6 µM (inactive); in experiment [16], 14.1 µM (inactive).
On to `O=C1C[C@@H]2[C@@H](c3ccccc3)[C@@H]3C(=O)c4ccccc4NC(=O)[C@H]3[C@]2(O)c2ccccc2N1`, for which the GI50 in experiment [1], in experiment [2], in experiment [3], in experiment [4], in [5] and in experiment [6] was > 100 µM (inactive) each time. Further, the GI50 in [7], in experiment [8], in experiment [9], in [11], in experiment [12] and in experiment [13] was > 100 µM (inactive) throughout. Besides, the GI50 in experiment [14], in experiment [15] and in experiment [16] was > 100 µM (inactive) each time.
Take `[N-]=[N+]=NC(CCl)c1cn([C@H]2C[C@H](O)[C@@H](CO)O2)c(=O)[nH]c1=O` (some centres not stated): the GI50 in experiment [1], in experiment [2], in [3], in [4], in [5] and in experiment [6] was > 100 µM (inactive) throughout. Besides, the GI50 in experiment [7], in experiment [8], in experiment [9], in experiment [11], in experiment [12] and in [13] was > 100 µM (inactive) throughout. The GI50 in experiment [14], in [15] and in experiment [16] was > 100 µM (inactive) each time.
`CO[C@]12CCC(=O)N1C=Cc1c2[nH]c2ccccc12`: the GI50 in experiment [1], in experiment [2], in [3], in experiment [4], in experiment [5] and in [6] was > 100 µM (inactive) throughout. The GI50 in [7], in experiment [8], in [9], in experiment [10], in [11] and in experiment [12] was > 100 µM (inactive) throughout. In addition, the GI50 in experiment [13], in [15] and in experiment [16] was > 100 µM (inactive) in each case.
